The record followed here is patent publication US20240382475A1, “Quinazoline Derivative, Or Preparation Method Therefor And Use Thereof” (Zhejiang Hisun Pharmaceutical Co., Ltd., priority 2021, published 2024).

One assay relates to NCI-H358 cells. Nature of the assay: Inhibition of NCI-H358 cell proliferation under 3D non-anchored conditions (CellTiter-Glo 3D). The settings on record: Homo sapiens, NCI-H358 cells (KRAS G12C mutation), 120 hours. The assay is classed as cell-based. Here is the method:
The following method was used to determine the effects of the compounds of the present invention on NCI-H358 cell proliferation under three-dimensional (3D) non-anchored conditions. NCI-H358 cells (containing KRAS G12C mutation) were purchased from the Cell Resource Center of Shanghai Institutes for Biological Sciences, Chinese Academy of Sciences, and cultured in RPMI 1640 medium containing 10% fetal bovine serum, 100 U penicillin, 100 μg/mL streptomycin and 1 mM Sodium Pyruvate. The activities of the cells were determined by CellTiter-Glo® 3D Cell Viability Assay Kit (Promega, Art. No. G9683).
The experimental method was operated according to the steps in the kit instruction, which can be briefly described as follows: the test compounds were first dissolved in DMSO to prepare storage solutions of 10 mM, and then diluted with culture mediums to prepare test samples. The final concentrations of the compounds were 10000 nM to 0.15 nM. Cells in logarithmic phase were inoculated in an ultra-low adsorption 384-well cell culture plate (PerkinElmer, #3830) with 2000 cells per well, and the test compounds were added and cultured for 120 hours. After the culture was completed, 30 μL of CellTiter-Glo 3D detection solution was added to each well, shaken for 30 minutes and then stood for 120 minutes. Then, a Luminescence mode was used to read the luminescence values of each well of the samples on a microplate reader. By comparing with the numerical value of a control group (0.1% DMSO), the percentage inhibition rates of the compounds at each concentration were calculated, and the IC50 values of the compounds inhibiting cell proliferation were obtained by performing nonlinear regression analysis with logarithmic values of the compound concentration-inhibition rate by GraphPad Prism 5 software, which can be seen in Table 4.
For orientation: Cellular ATP, detected with luciferase, serves as a proxy for viable cell number.

Another assay deals with p-ERK1/2 in DLD-1 cells. Description: Inhibition of p-ERK1/2 in DLD-1 cells (Cisbio Advanced phospho-ERK1/2 kit). The settings on record: Homo sapiens; DLD-1 cells (KRAS G13D mutation), hEGF 5 nM stimulation; read-out: IC50 (nM) Inhibition on p-ERK½ in DLD-1 cells. Format: cell-based. The text has this: The following method was used to determine the inhibition activities of the compounds of the present invention on p-ERK1/2 in DLD-1 cells. The Advanced phospho-ERK1/2 (Thr202/tyr2O4) kit (Art. No. 64AERPEH) from Cisbio was used in this method. Please refer to the kit instruction for detailed experimental operations. DLD-1 cells (containing KRAS G13D mutation) were purchased from the Cell Resource Center of Shanghai Institutes for Biological Sciences, Chinese Academy of Sciences.
The experimental process can be briefly described as follows: DLD-1 cells were cultured in RPMI 1640 complete medium containing 10% fetal bovine serum, 100 U penicillin, 100 μg/mL streptomycin and 1 mM Sodium Pyruvate. DLD-1 cells were plated in a 96-well plate at 30,000 cells per well, after cultured overnight in 5% CO2 incubator at 37° C. with complete culture medium. The test compounds were dissolved in DMSO to prepare storage solutions of 10 mM, and then diluted with RPMI 1640 basic mediums. 90 μL of RPMI 1640 basic mediums containing the test compounds at the corresponding concentration were added to each well. The final concentrations of the test compounds in the reaction system were 10,000 nM to 0.15 nM, and were placed in a cell culture incubator for 3 hours and 40 minutes. Subsequently, 10 μL of hEGF (purchased from Roche, Art. No. 11376454001) prepared with RPMI 1640 basic medium was added to a final concentration of 5 nM, and placed in the incubator for culturing for 20 minutes. The cell supernatant was discarded, and the cells were washed with PBS on ice-bath. Then, 45 μl of 1× cell phospho/total protein lysis buffer (component of Advanced phospho-ERK1/2 kit) was added to each well for lysis. The 96-well plate was placed on ice for 0.5 hours to lyse, and then the lysate was detected according to the instruction of the Advanced phospho-ERK1/2 (Thr202/tyr2O4) kit. Finally, the microplate reader was used in […] mode to measure the fluorescence intensity of each well emitting wavelengths of 620 nm and […] under the excitation wavelength of 304 nm, and the fluorescence intensity ratio 665/620 in each well was calculated. By comparing with the fluorescence intensity ratio of a control group (0.1% DMSO), the percentage inhibition rates of the test compounds at each concentration were calculated, and the IC50 values of the compounds were obtained by performing nonlinear regression analysis with logarithmic values of the compound concentration-inhibition rate by GraphPad Prism 5 software, which can be seen in Table 3.

One may read the IC50 as the concentration at which inhibition is half-maximal. As to `COc1cc2nc(C)nc(N[C@H](C)c3cccc(C#N)c3C)c2cc1N1CCOCC1` [Compound 1, (R)-3-(1-((7-methoxy-2-methyl-6-morpholinoquinazolin-4-yl)amino)ethyl)-2-methylbenzonitrile], the IC50 amounted to 78.3 nM in the assay on NCI-H358 cells and 48.7 nM with p-ERK1/2 in DLD-1 cells.

As for `COc1cc2nc(C)nc(N[C@H](C)c3cccc(C#N)c3C)c2cc1N1CCN(C(C)=O)CC1` [Compound 2, (R)-3-(1-((6-(4-acetylpiperazin-1-yl)-7-methoxy-2-methylquinazolin-4-yl)amino)ethyl)-2-methylbenzonitrile], the IC50 with NCI-H358 cells came out at 49.6 nM; in the assay with p-ERK1/2 in DLD-1 cells it was 65.4 nM.

As for `COc1cc2nc(C)nc(N[C@H](C)c3cccc(C#N)c3C)c2cc1N1CCC2(CCOCC2)CC1` [Compound 4, (R)-3-(1-((7-methoxy-2-methyl-6-(3-oxa-9-azaspiro[5.5]undecan-9-yl)quinazolin-4-yl)amino)ethyl)-2-methylbenzonitrile], the IC50 in the assay on NCI-H358 cells is 7 nM.

On to `COc1cc2nc(C)nc(N[C@H](C)c3cccc(C#N)c3C)c2cc1N1CCC2(CC1)COC2` [Compound 5, (R)-3-(1-((7-methoxy-2-methyl-6-(2-oxa-7-azaspiro[3.5]nonan-7-yl)quinazolin-4-yl)amino)ethyl)-2-methylbenzonitrile], for which the IC50 in the assay on NCI-H358 cells was 10.7 nM; in the assay with p-ERK1/2 in DLD-1 cells, 66.1 nM.

As to `COc1cc2nc(C)nc(N[C@H](C)c3cccc(C#N)c3C)c2cc1N1CCC2(CCN(C)C2=O)CC1` [Compound 7, (R)-3-(1-((7-methoxy-2-methyl-6-(2-methyl-1-oxo-2,8-diazaspiro[4.5]decan-8-yl)quinazolin-4-yl)amino)ethyl)-2-methylbenzonitrile], the IC50 with p-ERK1/2 in DLD-1 cells worked out at 31.1 nM.

Turning to `COc1cc2nc(C)nc(N[C@H](C)c3cccc(C#N)c3C)c2cc1N1CCC(C#N)CC1` [Compound 8, (R)-1-(4-((1-(3-cyano-2-methylphenyl)ethyl)amino)-7-methoxy-2-methylquinazolin-6-yl)piperidine-4-carbonitrile], the IC50 in the assay with p-ERK1/2 in DLD-1 cells turned out to be 38.2 nM.

In the case of `COc1cc2nc(C)nc(N[C@H](C)c3cccc(C#N)c3C)c2cc1N1CCC(C)(O)CC1` [Compound 11, (R)-3-(1-((6-(4-hydroxy-4-methylpiperidin-1-yl)-7-methoxy-2-methylquinazolin-4-yl)amino)ethyl)-2-methylbenzonitrile], the IC50 in the assay on NCI-H358 cells worked out at 71.4 nM; in the assay with p-ERK1/2 in DLD-1 cells it was 29.7 nM.

As for `COc1cc2nc(C)nc(N[C@H](C)c3cccc(C#N)c3C)c2cc1N1CCC2(CC1)CN(C(C)=O)C2` [Compound 19, (R)-3-(1-((6-(2-acetyl-2,7-diazaspiro[3.5]nonan-7-yl)-7-methoxy-2-methylquinazolin-4-yl)amino)ethyl)-2-methylbenzonitrile], the figures for the IC50 in the assay on NCI-H358 cells and in the assay with p-ERK1/2 in DLD-1 cells were 21.2 nM and 46.3 nM, respectively.
